Source: patent EP0671905B1, “STABLE PROTEIN: PHOSPHOLIPID COMPOSITIONS AND METHODS” (Amgen Inc., priority 1993, dated 1995)

How the values were obtained:
[1] = Tryptophan fluorescence emission spectra of protein:lipid complexes; assay type: physicochemical; conditions: mole ratio lipid:rhG-CSF 100:1
Protocol: There are two tryptophan residues in rhG-CSF that are quite sensitive to local environmental conditions. Therefore, analysis was performed to determine the rhG-CSF tryptophan fluorescence when the rhG-CSF is contacted with a liposome. […] An excellent review of tryptophan fluorescence analysis is […], by J. Lakowicz, Chap 11 (Plenum Press, New York, 1983).
Tryptophan fluorescence of the G-CSF:lipid complexes (as described above) was assayed by exciting the samples at 280 nm and while scanning the emission from 285 nm to 420 nm in 1nm increments at a rate of 1 nm/sec. The sample volume was 3 ml and the final concentration of G-CSF was 0.2 mg/ml for all samples. The lipid:G-CSF ratios varied. All fluorescence measurements were carried out using a PTI Alphascan fluorometer (South Brunswick, NJ). All measurements were performed at 25°C and this temperature was maintained through the use of a water-jacketed cuvette holder connected to a circulating water bath. Emission spectra were collected and analyzed using the data software provided by PTI.
In this example, the ability of rhG-CSF to interact with other phospholipids was determined using comparisons of F/FO intensity and emission maximums as described above. In each instance, the mole ratio of lipid:rhG-CSF was 100:1.
In this example, chemically modified G-CSF (pegylated G-CSF (PEG-G-CSF)) and G-CSF obtained as a product of eucaryotic host cell expression (CHO-G-CSF) were tested for their ability to interact with negatively charged lipid vesicles. For the CHO-G-CSF, the determinations were made using comparisons of F/FO intensity and emission maximums (as described in Example 1 above). In each instance, the mole ratio of lipid:protein was 100:1. For the PEG-G-CSF, the determination was based upon circular dichroism analysis.

[2] = Circular dichroism at 222 nm, thermal stability and temperature cycling; assay type: physicochemical; conditions: for effect on secondary structure of rhG-CSF (circular dichroism): 150:1 lipid:rhG-CSF ratio, heated to 95°C and cooled to 10°C; for thermal stability of GM-CSF (circular dichroism): lipid:GM-CSF ratio 17:1, PBS pH 7.0, heated to 90°C and cooled to 10°C
[3] = system: murine bone marrow cells; experiment: In vitro activity: G-CSF dependent uptake of [3H]-thymidine by bone marrow cells; assay type: cell-based; conditions: lipid mixed with rhG-CSF, lipid:protein ratio 100:1; control untreated rhG-CSF without lipid
Protocol: In this example, the effect of the rhG-CSF:DOPG interaction as it relates to the biological activity of rhG-CSF was determined. The in vitro activity of rhG-CSF was assayed utilizing the G-CSF dependent uptake of [^3H]-thymidine by murine bone marrow cells as described in Zsebo et al., Immunobiology 172: 175-184 (1986). All activity assays were performed in triplicate. In vivo activity was determined by subcutaneous injection of hamsters (rhG-CSF dose of 100 µg/kg) and measurements of white blood cell (WBC) count.
After heating to 85°C for 10 minutes, rhG-CSF has undetectable activity and the protein precipitates. […] B. The ability of various lipids to stabilize rhG-CSF during freeze drying was also studied. Samples of rhG-CSF in combination with various lipids were freeze dried and assayed (as described above) for activity.

insertion of rhG-CSF into lipid vesicles (F/FO and emission maximum) [1]	Structure (SMILES)	effect on secondary structure of rhG-CSF (circular dichroism) [2]	thermal stability of GM-CSF (circular dichroism) [2]	retention of rhG-CSF bioactivity after freeze drying [3] [%]	effect on emission maximum and fluorescence intensity of rhG-CSF [1]
can insert	CCCCCCCCCCCCCCCC(=O)OCC(COP(=O)(O)OCC(O)CO)OC(=O)CCCCCCCCCCCCCCC (centres unmarked) [DPPG, dipalmitoylphosphatidylglycerol]	stabilize the secondary structure of rhG-CSF	recovery of secondary structure after heating	~100	
	CCCCCCCCCCCCCC(=O)OC[C@H](COP(=O)([O-])OCC[N+](C)(C)C)OC(=O)CCCCCCCCCCCCC [DMPC, reference compound]				little if no effect
can insert	CCCCCCCC/C=C\CCCCCCCC(=O)OC[C@H](COP(=O)(O)OCC(O)CO)OC(=O)CCCCCCC/C=C\CCCCCCCC (some centres unmarked) [DOPG, dioleoylphosphatidylglycerol]			~100	
	CCCCCCCCCCCCCCCC(=O)OC[C@H](COP(=O)([O-])OCC[N+](C)(C)C)OC(=O)CCCCCCCCCCCCCCC [DPPC, reference compound]				little if no effect
can insert	CCCCCCCCCCCCCC(=O)OCC(COP(=O)(O)OCC(O)CO)OC(=O)CCCCCCCCCCCCC (centres unmarked) [DMPG, dimyristoylphosphatidylglycerol]	stabilize the secondary structure of rhG-CSF	recovery of secondary structure after heating	~100	
	CCCCCCCC/C=C\CCCCCCCC(=O)OC[C@H](COP(=O)([O-])OCC[N+](C)(C)C)OC(=O)CCCCCCC/C=C\CCCCCCCC [DOPC, reference compound]				little if no effect

Structure (SMILES)	insertion of rhG-CSF into lipid vesicles (F/FO and emission maximum) [1]	effect on secondary structure of rhG-CSF (circular dichroism) [2]	thermal stability of GM-CSF (circular dichroism) [2]	retention of rhG-CSF bioactivity after freeze drying [3] [%]	effect on emission maximum and fluorescence intensity of rhG-CSF [1]
CCCCCCCCC=CCCCCCCCC(=O)OCC(COP(=O)(O)OCCNC(=O)CCCC(=O)O)OC(=O)CCCCCCCC=CCCCCCCCC (centres unmarked) [NG-DOPE]	improved insertion of the rhG-CSF than DOPE				
